The experiment deals with T1, human PDE4.
T1 construct: PDE4 is partially purified from undifferentiated human monocytic cells (U-937) according to Thorpy et al. 1992 (J. Pharmacol. Exp. Ther. 263: 1195)
Nature of the experiment: IMAP FP in vitro enzymatic PDE4 inhibition assay. It is filed as biochemical. The settings on record: for IC50: PDE4 partially purified from human monocytic U-937 cells, 90 minutes at room temperature, fluorescence polarization. The protocol: PDE4 specifically hydrolyzes cAMP and releases the product AMP. The potency of PDE inhibition by said agents is determined in an in vitro enzymatic assay. The assay is commercially available (IMAP™ FP assay Molecular Devices Corp.(MDS)) and is optimized for the use of human PDE4. Fluorescently labeled cAMP is hydrolyzed by PDE4 and in a second step, binding of labeled product to a large binding partner allowed product detection by fluorescence polarization (FP) measurements.
PDE4 is partially purified from undifferentiated human monocytic cells (U-937) according to Thorpy et al. 1992 (J. Pharmacol. Exp. Ther. 263: 1195). […] In addition, PDE4 preparations are validated by inhibition studies with PDE4-specific and unspecific PDE inhibitors.
Stock solutions of test compounds are made in DMSO and diluted in assay buffer (10 mM Tris-HCl, 10 mM MgCl2, 0.1% BSA 0.05% NaN3, pH 7.2) to the desired concentrations. The solutions used in the assay contained test compound in assay buffer with 2% DMSO.
10 μl of substrate (at a concentration recommended by the manufacturer) are mixed with 5 μl of appropriately diluted PDE and 5 μl of test compound solution. 5 μl of reaction buffer with 2% DMSO are used for control reactions. […] After incubation for 90 minutes at room temperature, 60 μl of binding reagent are added as specified by the manufacturer. Binding is allowed to proceed for 30 minutes and fluorescence polarization is measured. Dose dependence of PDE inhibition is measured by assaying dilution series of test compounds in duplicates. IC50 values are determined from the measured activities by curve fitting.

`CCC1OC(=O)C(C)C(OC2CC(C)(OC)C(O)C(C)O2)C(C)C(OC2OC(C)CC(N(C)C)C2O)C(C)(OC)CC(C)C(=O)C(C)C2C(SCCn3c(CCc4cccnc4)nc4c(N)ncnc43)C(=O)OC12C` (stereo not drawn) [Example 1] registered an IC50 of 13.4 µM.
On the same count and under the same terms, next, `CC[C@H]1OC(=O)[C@H](C)[C@@H](O[C@H]2C[C@@](C)(OC)[C@@H](O)[C@H](C)O2)[C@H](C)[C@@H](O[C@@H]2O[C@H](C)C[C@H](N(C)C)[C@H]2O)[C@](C)(OC)C[C@@H](C)C(=O)[C@H](C)[C@H]2[C@H](SCCn3c(Nc4cccnc4)nc4c(N)ncnc43)C(=O)O[C@@]21C` [Example 2]: 3.9 µM; `CC[C@H]1OC(=O)[C@H](C)[C@@H](O[C@H]2C[C@@](C)(OC)[C@@H](O)[C@H](C)O2)[C@H](C)[C@@H](O[C@@H]2O[C@H](C)C[C@H](N(C)C)[C@H]2O)[C@](C)(OC)C[C@@H](C)C(=O)[C@H](C)[C@H]2[C@H](SCCN(C(=O)c3ccncc3)c3ccc(OC)c(OC4CCCC4)c3)C(=O)O[C@@]21C` [Example 3]: 3.4 µM.
In turn, `CC[C@H]1OC(=O)[C@H](C)[C@@H](O[C@H]2C[C@@](C)(OC)[C@@H](O)[C@H](C)O2)[C@H](C)[C@@H](O[C@@H]2O[C@H](C)C[C@H](N(C)C)[C@H]2O)[C@](C)(OC)C[C@@H](C)C(=O)[C@H](C)[C@H]2[C@H](SCCN(Cc3ccncc3)c3ccc(OC)c(OC4CCCC4)c3)C(=O)O[C@@]21C` [Example 4] returned an IC50 of 0.28 µM.
The compound `CC[C@H]1OC(=O)[C@H](C)[C@@H](O[C@H]2C[C@@](C)(OC)[C@@H](O)[C@H](C)O2)[C@H](C)[C@@H](O[C@@H]2O[C@H](C)C[C@H](N(C)C)[C@H]2O)[C@](C)(OC)C[C@@H](C)C(=O)[C@H](C)[C@H]2[C@H](SCCN(Cc3cccnc3)c3ccc(OC)c(OC4CCCC4)c3)C(=O)O[C@@]21C` [Example 5] registered an IC50 of 0.85 µM.
`CC[C@H]1OC(=O)[C@H](C)[C@@H](O[C@H]2C[C@@](C)(OC)[C@@H](O)[C@H](C)O2)[C@H](C)[C@@H](O[C@@H]2O[C@H](C)C[C@H](N(C)C)[C@H]2O)[C@](C)(OC)C[C@@H](C)C(=O)[C@H](C)[C@H]2[C@H](SCCNc3c(C(=O)Nc4c(Cl)cncc4Cl)cnc4c3cnn4CC)C(=O)O[C@@]21C` [Example 6] had an IC50 of 0.37 µM.
Regarding `CC[C@H]1OC(=O)[C@H](C)[C@@H](O[C@H]2C[C@@](C)(OC)[C@@H](O)[C@H](C)O2)[C@H](C)[C@@H](O[C@@H]2O[C@H](C)C[C@H](N(C)C)[C@H]2O)[C@](C)(OC)C[C@@H](C)C(=O)[C@H](C)[C@H]2[C@H](SCCCc3c(C(=O)Nc4ccncc4)ccc(OC)c3OC)C(=O)O[C@@]21C` [Example 7], the IC50 turned out to be 7.6 µM.
With `CC[C@H]1OC(=O)[C@H](C)[C@@H](O[C@H]2C[C@@](C)(OC)[C@@H](O)[C@H](C)O2)[C@H](C)[C@@H](O[C@@H]2O[C@H](C)C[C@H](N(C)C)[C@H]2O)[C@](C)(OC)C[C@@H](C)C(=O)[C@H](C)[C@H]2[C@H](SCCCn3cnc4c(N)ncc(C(=O)Nc5ccncc5)c43)C(=O)O[C@@]21C` [Example 8], the half-inhibitory concentration (IC50) came to 4.7 µM.
`CC[C@H]1OC(=O)[C@H](C)[C@@H](O[C@H]2C[C@@](C)(OC)[C@@H](O)[C@H](C)O2)[C@H](C)[C@@H](O[C@@H]2O[C@H](C)C[C@H](N(C)C)[C@H]2O)[C@](C)(OC)C[C@@H](C)C(=O)[C@H](C)[C@H]2[C@H](SCCCn3cnc4c(N)ncc(C(=O)NCC(=O)OC)c43)C(=O)O[C@@]21C` [Example 9] yielded a half-maximal inhibitory concentration (IC50) of 24.2 µM.
Same read-out and setting: next, `CC[C@H]1OC(=O)[C@H](C)[C@@H](O[C@H]2C[C@@](C)(OC)[C@@H](O)[C@H](C)O2)[C@H](C)[C@@H](O[C@@H]2O[C@H](C)C[C@H](N(C)C)[C@H]2O)[C@](C)(OC)C[C@@H](C)C(=O)[C@H](C)[C@H]2[C@H](SCCn3cnc4c(N)ncc(C(=O)Nc5ccncc5)c43)C(=O)O[C@@]21C` [Example 10]: 1 µM.
With `CC[C@H]1OC(=O)[C@H](C)[C@@H](O[C@H]2C[C@@](C)(OC)[C@@H](O)[C@H](C)O2)[C@H](C)[C@@H](O[C@@H]2O[C@H](C)C[C@H](N(C)C)[C@H]2O)[C@](C)(OC)C[C@@H](C)C(=O)[C@H](C)[C@H]2[C@H](SCCn3cnc4c(N)ncc(C(=O)Nc5c(Cl)cncc5Cl)c43)C(=O)O[C@@]21C` [Example 11], the IC50 was 0.008 µM.
Turning to `CC[C@H]1OC(=O)[C@H](C)[C@@H](O[C@H]2C[C@@](C)(OC)[C@@H](O)[C@H](C)O2)[C@H](C)[C@@H](O[C@@H]2O[C@H](C)C[C@H](N(C)C)[C@H]2O)[C@](C)(OC)C[C@@H](C)C(=O)[C@H](C)[C@H]2[C@H](SCCn3cnc4c(N)nc(NCc5cccnc5)nc43)C(=O)O[C@@]21C` [Example 12], it took 3.8 µM to reach half-maximal inhibition (IC50).
For the compound `CC[C@H]1OC(=O)[C@H](C)[C@@H](O[C@H]2C[C@@](C)(OC)[C@@H](O)[C@H](C)O2)[C@H](C)[C@@H](O[C@@H]2O[C@H](C)C[C@H](N(C)C)[C@H]2O)[C@](C)(OC)C[C@@H](C)C(=O)[C@H](C)[C@H]2[C@H](SCCn3cnc4c(N)nc(NCc5ccncc5)nc43)C(=O)O[C@@]21C` [Example 13], the IC50 was 2.6 µM.
On the same count and under the same terms, next, `CC[C@H]1OC(=O)[C@H](C)[C@@H](O)[C@H](C)[C@@H](O[C@@H]2O[C@H](C)C[C@H](N(C)C)[C@H]2O)[C@](C)(OC)C[C@@H](C)C(=O)[C@H](C)[C@H]2[C@H](SCCn3cnc4c(N)ncc(C(=O)Nc5c(Cl)cncc5Cl)c43)C(=O)O[C@@]21C` [Example 14]: 0.0049 µM; `CC[C@H]1OC(=O)[C@H](C)C(=O)[C@H](C)[C@@H](O[C@@H]2O[C@H](C)C[C@H](N(C)C)[C@H]2O)[C@](C)(OC)C[C@@H](C)C(=O)[C@H](C)[C@H]2[C@H](SCCN(Cc3c(Cl)cncc3Cl)c3ccc(OC)c(OC4CCCC4)c3)C(=O)O[C@@]21C` [Example 15]: 0.48 µM; `CC[C@H]1OC(=O)[C@H](C)[C@@H](O)[C@H](C)[C@@H](O[C@@H]2O[C@H](C)C[C@H](N(C)C)[C@H]2O)[C@](C)(OC)C[C@@H](C)C(=O)[C@H](C)[C@H]2[C@H](SCCNc3c(C(=O)Nc4c(Cl)cncc4Cl)cnc4c3cnn4CC)C(=O)O[C@@]21C` [Example 16]: 0.11 µM.
Turning to `CC[C@H]1OC(=O)[C@H](C)[C@@H](O[C@H]2C[C@@](C)(OC)[C@@H](O)[C@H](C)O2)[C@H](C)[C@@H](O[C@@H]2O[C@H](C)C[C@H](N(C)C)[C@H]2O)[C@](C)(OC)C[C@@H](C)C(=O)[C@H](C)[C@H]2[C@H](SC)C(=O)O[C@@]21C` [reference compound], where the note is “up to a concentration of 50 μM in the assay used in the examples”, the PDE4-inhibiting activity entry was “does not show any PDE4-inhibiting activity”.
Turning to `CSCCn1cnc2c(N)ncc(C(=O)Nc3c(Cl)cncc3Cl)c21` [reference compound], the IC50 was determined as 3.6 µM.

For the origin of these results see US8445451B2, “Macrolides and uses of macrolides” (Basilea Pharmaceutica AG, priority 2008, dated 2013).
